Reference: PubChem BioAssay AID2305 (GlaxoSmithKline (GSK), 2010)
Values joined by “and” are separate entries in the source; they are usually repeats but may differ in a detail not shown here. Equal values may be shown once.

Tested on: P. falciparum 3D7 growth, pLDH absorbance
Assay: blood-stage malaria parasite growth potency – strain 3D7, dose response (AID 2305)

Row | SMILES | IC50
1 | Oc1ccc(-c2nc(-c3ccc4oc5ccc(-c6[nH]c(-c7ccc(O)cc7)nc6-c6ccccc6)cc5c4c3)c(-c3ccccc3)[nH]2)cc1 | 1110 nM
2 | CCCCCCCCn1ccc(=N)cc1 | 840 nM
3 | O=C(Nc1ccccc1-c1ccccc1)C1CCCN1C(=O)Nc1ccc(Cl)cc1 (stereo not drawn) | 790 nM
4 | N#Cc1ccc(NC(=O)Nc2ccc(OC(F)(F)F)cc2)cc1 | 820 nM
5 | CCCCCCCN1CC[C@@H](CCCc2ccnc3ccc(OCCCCNC(N)=O)cc23)[C@@H](CC)C1 | 840 nM
6 | COc1cccc(CNC(=O)c2cnc(N3CCN(c4ccncc4)CC3)c(Cl)c2)c1 | 1150 nM
7 | O=C(COc1ccccc1Cl)N1CCc2cc3nccc(N4CCN5CCC[C@H]5C4)c3cc21 | 740 nM
8 | CCc1c(CCNCCCCCCNCCc2ccc3c(c2C)OCO3)ccc2c1OCO2 | 610 nM
9 | Cc1cccc2[nH]c(-c3ccc(-c4cccc(CN5CCCC(O)C5)c4)s3)nc12 (stereo not drawn) | 940 nM
10 | CCOc1cccc(C(=O)Nc2cccc(CN3CCCN(Cc4cccc(O)c4)CC3)c2)c1 | 1090 nM
11 | Cc1cc(NN=Cc2cccc([N+](=O)[O-])c2)c2ccc(C(F)(F)F)cc2n1 | 880 nM
12 | COc1ccc2nc3ccccc3c(NCCN3CCN(C)CC3)c2c1 | 1290 nM
13 | Cc1ccc(C)c(N2CCN(Cc3ccccc3O)CC2)c1 | 940 nM
14 | Nc1nc(N)c2c(ccc3nn(Cc4cccnc4)cc32)n1 | 360 nM
15 | COc1cc(Cc2cnc(N)nc2N)cc(OCc2cccc(C(=O)O)c2)c1OC | 830 nM
16 | Cc1[nH]c2ccccc2c1C1=CCN(CCN2CCOc3c(Br)cccc3C2=O)CC1 | 800 nM
17 | Cc1cc(NC(=O)NCCN2CCC(NS(=O)(=O)c3ccccc3F)CC2)c2ccccc2n1 | 950 nM
18 | CC1CCC2(CC1)N=C(N)N=C(N)N2OCc1ccc(Br)c2ccccc12 (stereo not drawn) | 220 nM
19 | CCCN(Cc1ccc(C)cc1)Cc1cc(=O)c2cc(Cl)ccc2[nH]1 | 1050 nM
20 | Cc1ccc(-c2ccc3c(c2)C=C(C(=O)NCC2CCN(CC4CCN(C(=O)/C=C/c5ccc(Cl)c(Cl)c5)CC4)CC2)CCC3)cc1 | 780 nM
21 | COc1ccc(-c2ccc(NC(=O)c3cccc(Cl)c3)c(F)c2)cc1CN1CCCN(C)CC1 | 680 nM
22 | CS(=O)(=O)c1ccc(CNCc2ccc(-c3cccc(-c4nc5ccccc5[nH]4)c3)cc2)cc1 | 330 nM
23 | CC(CN(C)C)C(=O)Nc1ccc(-c2cccc(-c3nc4ccccc4[nH]3)c2)cc1 (stereo not drawn) | 720 nM
24 | O=C(Nc1cccc(CN2CCN(Cc3ccc(O)cc3)CC2)c1)c1ccc(-c2ccccc2)cc1 | 250 nM
25 | O=C(/C=C/c1ccc(Cl)c(Cl)c1)NCCCCCCN1CCN(C(=O)Nc2cc(Cl)nc(Cl)c2)CC1 | 780 nM

Row | SMILES | IC50
26 | CCCc1cn2c3c(cc(C(=O)N[C@@H](Cc4ccccc4)[C@H](O)CNC4CCCCC4)cc13)N(CC)S(=O)(=O)CC2 | 80 nM
27 | COc1ccc2c(NN=Cc3cccc([N+](=O)[O-])c3)cc(C)nc2c1 | 560 nM
28 | O=C(NCCCCN1CCN(c2cccc(Cl)c2Cl)CC1)c1ccc2c(c1)CCN(C1CCC1)CC2 | 750 nM
29 | CCCCCC(=O)NCC(NCCCNc1cc(=O)c2ccccc2[nH]1)c1cc(Br)cc(Br)c1 (stereo not drawn) | 650 nM
30 | CO/C(=C\C=C\c1cc2cc(Cl)c(Cl)cc2[nH]1)C(=O)NCCCN1CCCC[C@H]1C | 790 nM
31 | CCN(CCCN1CCCCC1)c1cc(C)nc(Nc2cc(F)cc(F)c2)n1 | 570 nM
32 | CN1CCN(CCCN(Cc2ccc(-c3ccc(CNC4CCCC4)cc3)cc2)C(=O)CCC2CCCC2)CC1 | 890 nM
33 | Cc1cccc2[nH]c(=O)c([N+](=O)[O-])c(O)c12 | 910 nM
34 | CC[C@H](NC(=O)c1c(CC2CCN(CC(C)=O)CC2)c(-c2ccccc2)nc2ccccc12)c1ccccc1 | 380 nM
35 | CC(C)Cc1ccc(N2CCN(CCCCNC(=O)c3ccc(NC(=O)c4cc(C(F)(F)F)cc(C(F)(F)F)c4)cc3)CC2)cc1 | 180 nM
36 | CN1CCN(c2nsc3ccc(-c4ccc(NC(=O)Nc5ccccc5)cc4)cc23)CC1 | 180 nM
37 | CC(C(=O)NC1CCN(c2ccnc(Nc3ccc(F)cc3)n2)C1)c1ccc(Cl)cc1 (stereo not drawn) | 860 nM
38 | Cc1cc(Oc2ccc(-n3ccnc3)cc2)nc(N2CCN(CCCN3CCCC3)CC2)n1 | 930 nM
39 | N#Cc1cncc(-c2nc3c(N4CCC(Cc5ccccc5)CC4)cccc3n2C2CCNC2)c1 (stereo not drawn) | 990 nM
40 | c1ccc2c(CNc3nc(NCC4CCCCC4)nc4nc[nH]c34)cccc2c1 | 890 nM
41 | CCOC(=O)CNC(=O)c1cc(=O)c2ccccc2o1 | 210 nM
42 | COc1ccc2ccccc2c1CCCCN1CCN(CC(c2ccc(F)cc2)N2CCC(N3CCCC3)CC2)CC1 (stereo not drawn) | 620 nM
43 | O=C(c1cccc(Br)c1)N1CCN(c2ccc([N+](=O)[O-])c(NC3CC3)c2)CC1 | 940 nM
44 | O=C(/C=C/c1ccc(Cl)c(Cl)c1)NCCCCCN1CCC(NC(=O)NC2CCCC2)CC1 | 630 nM
45 | Cc1c(C)c2c(c(C)c1O)CCC(C)(CCC(=O)O)O2 (stereo not drawn) | 690 nM
46 | COc1ccc(Cc2cnc3nc(N)nc(N)c3c2C)cc1OC | 10 nM
47 | CC=Cc1cc(Cc2cnc(N)nc2N)cc(CCC)c1OC | 780 nM
48 | Cc1cc(C)c(NC(=O)NC2CCN(CCCCCNC(=O)/C=C/c3ccc(Cl)c(Cl)c3)CC2)c(C)c1 | 800 nM
49 | COc1ccc(NC2=C(c3ccccc3)C(=O)c3ccccc32)cn1 | 710 nM
50 | O=C(Nc1cc(Cl)ccc1O)c1cnn2c(C(F)(F)F)cc(-c3cccs3)nc12 | 860 nM

Row | SMILES | IC50
51 | Cn1nc(-c2ccc(CN[C@@H]3CCc4ccc(O)cc43)cc2)c2cnc(NCCCN3CCCC3)nc21 | 800 nM
52 | COC(=O)c1ccc(CC(C)NCC(O)c2cccc3ccccc23)cc1 (stereo not drawn) | 940 nM
53 | CCc1ccc(CN2CCC(CNC(=O)c3cc(-c4cccc(F)c4)cs3)C2)cc1 (stereo not drawn) | 1360 nM
54 | O=C(NCCCCN1CCC[C@@H]2c3cccc(O)c3CC[C@@H]21)c1ccc(-c2ccccc2)cc1 | 1170 nM
55 | CCC[C@@H]([C@@H](CC1CCCCC1)C(=O)NC(C(=O)Nc1nccs1)C(CC)c1ccccc1)N(O)C=O (stereo partly drawn) | 690 nM
56 | COc1ccc(C(C(=O)NC2CCN(C[C@H](O)c3ccnc4ccc(OC)cc34)CC2)N2CCN(c3ccc([N+](=O)[O-])cc3)CC2)cc1 (stereo partly drawn) | 230 nM
57 | Cc1cc(NN=Cc2cccc(F)c2)c2cccc(C)c2n1 | 770 nM
58 | Cc1cccc2[nH]c(-c3ccc(-c4cccc(CNCCNC(=O)c5ccnn5C)c4)cc3)nc12 | 400 nM
59 | CN(C)c1cc(NN=Cc2cc(Cl)ccc2O)nc(N(C)C)n1 | 700 nM
60 | CCn1cc(CN2CCCC(C(=O)Nc3ccc(-c4nc5ccccc5[nH]4)cc3)C2)c(C)n1 (stereo not drawn) | 800 nM
61 | O=C(CCNc1ccnc(NCC2CCCCC2)n1)Nc1ccccc1 | 1100 nM
62 | O=C(Nc1ccccc1)N(Cc1ccccc1-c1cccc(CNCCc2ccccc2)c1)C1CCN(Cc2ccccc2)CC1 | 180 nM
63 | COc1cc(Nc2ccnc3ccc(C(F)(F)F)cc23)ccc1OCCCc1ccccc1 | 770 nM
64 | C=CCN(c1ccc(OC)cc1)S(=O)(=O)c1ccc(Cl)c(C(=O)Nc2cccc(C#N)c2)c1 | 580 nM
65 | CN1CCN(Cc2cccc(-c3cc4nccc(Nc5ccc(Oc6ccccc6)cc5)c4cc3Cl)c2)CC1 | 730 nM
66 | COc1ccc2c(c1)CC1CN(CCCCNC(=O)c3ccc(NC(=O)c4cc(Cl)cc(Cl)c4)cc3)CCN1C2 (stereo not drawn) | 770 nM
67 | Nc1nccc2ccc(-c3ccnc(NCc4cccnc4)n3)cc12 | 460 nM
68 | COC(=O)c1ccc(-c2ccc(-c3cccnc3)cc2C)cc1 | 660 nM
69 | COc1cc2nc(N3CCC(CNC(=O)c4ccc(-c5ccc(Cl)cc5)cc4)CC3)nc(N)c2cc1OC | 150 nM
70 | CCN(CC)C(=NCCCCCCN=C(/N=C(\N)c1ccc(Cl)cc1)N(CC)CC)/N=C(\N)c1ccc(Cl)cc1 | 380 nM
71 | CC[C@H]1CN(CCCn2c3ccccc3c3ccccc32)[C@@H](CC)CN1 | 1080 nM
72 | CC(C)(C)S[C@H]1S[C@H](SC(C)(C)C)[C@@H](OC(=O)c2ccccc2)C(OC(=O)c2ccccc2)[C@H]1OC(=O)c1ccccc1 (stereo partly drawn) | 940 nM
73 | CCCCN(CCCC)CCCN(CCCN(CCCC)CCCC)c1cc(C)nc(Nc2ccc(Br)cc2)n1 | 130 nM
74 | COc1cccc(-c2ccc(C(=O)NCC3CCCN(Cc4cccc(C(F)(F)F)c4)C3)s2)c1 (stereo not drawn) | 1140 nM
75 | NC1=NC2(CCCCC2)N(OCCCCCCCCNc2nc(N)nc(N)n2)C(N)=N1 | 60 nM

Row | SMILES | IC50
76 | COc1ccccc1Nc1nc(NC2CCN(C)CC2)cc(-c2cccc(C(F)(F)F)c2)n1 | 920 nM
77 | O=C(Nc1ccc(Cl)c(Cl)c1)C1CCC(=O)N1[C@@H](Cc1ccccc1)C(=O)NCCc1ccc(Cl)cc1 (stereo partly drawn) | 1100 nM
78 | c1ccc(Cn2nnnc2-c2cccc(Nc3ccnc4cc(-c5nccs5)ccc34)c2)cc1 | 830 nM
79 | O=C(Nc1ccc(Cl)c(Cl)c1)N1CCC(CN2CCC(c3c[nH]c4ccccc34)CC2)CC1 | 290 nM
80 | Cc1cccc2[nH]c(-c3ccc(-c4cccc(CN5CCN(CC6CCCN(C)C6)CC5)c4)s3)nc12 (stereo not drawn) | 120 nM
81 | OC1CCC(Nc2ccc3ncc(-c4ccc(Cl)cc4)n3n2)CC1 (stereo not drawn) | 820 nM
82 | O=C(/C=C/c1ccc(Cl)c(Cl)c1)NCCCCCN1[C@@H]2CC[C@H]1CC(c1c[nH]c3ccc(O)cc13)C2 (stereo partly drawn) | 880 nM and 1000 nM
83 | COc1ccc2[nH]cc(C3CCN(CCCCNC(=O)c4ccc(NC(=O)c5ccc(Cl)cc5)cc4)CC3)c2c1 | 1020 nM
84 | CCOC(=O)c1cncc(/C=C/c2cc(C)cnc2N)c1 | 420 nM
85 | Clc1ccc2c(NCCc3ccccn3)ccnc2c1 | 830 nM
86 | C[C@@H]1CN(c2ccc3occ(C(=O)Nc4ccc(-c5ccncc5)c(Cl)c4)c3c2)C[C@H](C)N1C | 850 nM
87 | CC(Cc1ccc(OCCCCOc2ccccc2)cc1)NCCC1CCCN1C (stereo not drawn) | 40 nM
88 | Cc1nc2ccc(F)cc2n1C1CCN(C(=O)Cc2ccc(F)c(F)c2)CC1 | 1410 nM
89 | Cc1ccccc1Nc1nc(NCc2ccccc2)nc2ccccc12 | 1020 nM
90 | CCN(CC)CCCC(C)Nc1c2ccc(Cl)cc2nc2ccc(OC)cc12 (stereo not drawn) | 40 nM
91 | Cc1ccc(-n2c(=O)c3c(n4c(SC(C)C)nnc24)-c2ccccc2CC32CCCCC2)cc1 | 950 nM
92 | c1ccc2c(CNCCCCCCNCc3c(OCC4CC4)ccc4ccccc34)c(OCC3CC3)ccc2c1 | 930 nM
93 | O=c1[nH]c(NCCCCCN2CCC(c3c[nH]c4ccccc34)CC2)ncc1Cc1ccc(Cl)c(Cl)c1 | 970 nM
94 | Oc1cccc(C2CCCN(Cc3cccc4cc[nH]c34)C2)c1 (stereo not drawn) | 510 nM
95 | O=c1c(NCCCN(Cc2ccc(F)cc2)c2ccccn2)c(NCc2ccncc2)c1=O | 150 nM
96 | O=C(NCc1cccc(F)c1)Nc1cccc(-c2ccc(-c3nc4ccc(F)cc4[nH]3)cc2)c1 | 1050 nM
97 | CCNC(=O)Nc1cccc(-c2ccc(-c3nc4c(C)cccc4[nH]3)s2)c1 | 770 nM
98 | CCOCCCNc1nc2cc(OC)c(OC)cc2c2nc(-c3ccccc3)nn12 | 210 nM
